{"source": "PubChem BioAssay AID1918936", "about": "(Molecular Pharmacology Branch, DTP, NCI, 2023)", "system": "349418-098-R-PDC complex spheroid viability", "assay": "Anticancer human tumor 349418-098-R-PDC patient-derived lung adenocarcinoma cell line growth inhibition", "conditions": "for viability, T/C: stronger effect = lower value", "outline": "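Complex spheroids of tumor cells with HUVEC and human MSCs, exposed to iadademstat combined with other agents. Each agent tested in half-log steps from near clinical Cmax (else 10 microM top), DMSO ≤0.25%.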", "key": {"[1]": {"conditions": "curve of first compound, second compound 0.1 µM"}, "[2]": {"conditions": "curve of first compound, second compound 0.316 µM"}, "[3]": {"conditions": "curve of first compound, second compound 1 µM"}, "[4]": {"conditions": "curve of first compound, second compound 3.16 µM"}, "[5]": {"conditions": "curve of first compound, second compound 10 µM"}}, "note": "Values joined by “and” are separate entries in the source; they are usually repeats but may differ in a detail not shown here. Equal values may be shown once.", "data": [{"molecule": "CC1COCCN1c1cc(C2(S(C)(=N)=O)CC2)nc(-c2ccnc3[nH]ccc23)n1", "note": "(centres undefined);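 further: spheroids exposed to agents for seven days before readout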;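 on viability, T/C: 100% = DMSO vehicle control wells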", "values": [{"measurement": "viability, T/C", "setting": "compound 0.0316 µM", "result": "106% and 107%"}, {"measurement": "viability, T/C", "setting": "compound 0.1 µM", "result": "91.2% and 108%"}, {"measurement": "viability, T/C", "setting": "compound 0.316 µM", "result": "57% and 96.7%"}, {"measurement": "viability, T/C", "setting": "compound 1 µM", "result": "14.8% and 49.8%"}, {"measurement": "viability, T/C", "setting": "compound 3.16 µM", "result": "10.1% and 11.9%"}, {"measurement": "viability, T/C", "setting": "compound 10 µM", "result": "10.6% and 11.5%"}, {"measurement": "IC50", "setting": "curve of compound", "result": "368 nM and 977 nM"}]}, {"molecule": "O=C(c1cc(Cc2n[nH]c(=O)c3ccccc23)ccc1F)N1CCN(C(=O)C2CC2)CC1", "values": [{"measurement": "viability, T/C", "setting": "compound 0.0316 µM", "result": "94.6% and 101%"}, {"measurement": "viability, T/C", "setting": "compound 0.1 µM", "result": "97.8% and 94.5%"}, {"measurement": "viability, T/C", "setting": "compound 0.316 µM", "result": "78.8% and 90.7%"}, {"measurement": "viability, T/C", "setting": "compound 1 µM", "result": "65.8% and 85.2%"}, {"measurement": "viability, T/C", "setting": "compound 3.16 µM", "result": "53.2% and 64%"}, {"measurement": "viability, T/C", "setting": "compound 10 µM", "result": "38.9% and 42.3%"}, {"measurement": "IC50", "setting": "curve of compound", "result": "3510 nM and 6750 nM"}]}, {"molecule": "Nc1ncn(C2CC(O)C(CO)S2)c(=O)n1", "note": "(centres undefined) + NC1CC1c1ccc(-c2cccc(O)c2)cc1", "values": [{"measurement": "IC50", "setting": "[1]", "result": 25, "unit": "nM"}, {"measurement": "IC50", "setting": "[2]", "result": 23.9, "unit": "nM"}, {"measurement": "IC50", "setting": "[3]", "result": 27.9, "unit": "nM"}, {"measurement": "IC50", "setting": "[4]", "result": 27.1, "unit": "nM"}, {"measurement": "IC50", "setting": "[5]", "result": 19.5, "unit": "nM"}, {"measurement": "viability, T/C", "setting": "second compound 0.1 µM, first compound 0.000949 µM", "result": 113, "unit": "%"}, {"measurement": "viability, T/C", "setting": "second compound 0.1 µM, first compound 0.003 µM", "result": 112, "unit": "%"}, {"measurement": "viability, T/C", "setting": "second compound 0.1 µM, first compound 0.00949 µM", "result": 87.1, "unit": "%"}, {"measurement": "viability, T/C", "setting": "second compound 0.1 µM, first compound 0.03 µM", "result": 42.6, "unit": "%"}, {"measurement": "viability, T/C", "setting": "second compound 0.1 µM, first compound 0.0949 µM", "result": 15.4, "unit": "%"}, {"measurement": "viability, T/C", "setting": "second compound 0.1 µM, first compound 0.3 µM", "result": 5.99, "unit": "%"}, {"measurement": "viability, T/C", "setting": "second compound 0.316 µM, first compound 0.000949 µM", "result": 112, "unit": "%"}, {"measurement": "viability, T/C", "setting": "second compound 0.316 µM, first compound 0.003 µM", "result": 106, "unit": "%"}, {"measurement": "viability, T/C", "setting": "second compound 0.316 µM, first compound 0.00949 µM", "result": 93, "unit": "%"}, {"measurement": "viability, T/C", "setting": "second compound 0.316 µM, first compound 0.03 µM", "result": 39, "unit": "%"}, {"measurement": "viability, T/C", "setting": "second compound 0.316 µM, first compound 0.0949 µM", "result": 12.2, "unit": "%"}, {"measurement": "viability, T/C", "setting": "second compound 0.316 µM, first compound 0.3 µM", "result": 6.04, "unit": "%"}, {"measurement": "viability, T/C", "setting": "second compound 1 µM, first compound 0.000949 µM", "result": 117, "unit": "%"}, {"measurement": "viability, T/C", "setting": "second compound 1 µM, first compound 0.003 µM", "result": 107, "unit": "%"}, {"measurement": "viability, T/C", "setting": "second compound 1 µM, first compound 0.00949 µM", "result": 96.8, "unit": "%"}, {"measurement": "viability, T/C", "setting": "second compound 1 µM, first compound 0.03 µM", "result": 46.3, "unit": "%"}, {"measurement": "viability, T/C", "setting": "second compound 1 µM, first compound 0.0949 µM", "result": 13.5, "unit": "%"}, {"measurement": "viability, T/C", "setting": "second compound 1 µM, first compound 0.3 µM", "result": 5.81, "unit": "%"}, {"measurement": "viability, T/C", "setting": "second compound 3.16 µM, first compound 0.000949 µM", "result": 115, "unit": "%"}, {"measurement": "viability, T/C", "setting": "second compound 3.16 µM, first compound 0.003 µM", "result": 115, "unit": "%"}, {"measurement": "viability, T/C", "setting": "second compound 3.16 µM, first compound 0.00949 µM", "result": 96.3, "unit": "%"}, {"measurement": "viability, T/C", "setting": "second compound 3.16 µM, first compound 0.03 µM", "result": 44.6, "unit": "%"}, {"measurement": "viability, T/C", "setting": "second compound 3.16 µM, first compound 0.0949 µM", "result": 17.3, "unit": "%"}, {"measurement": "viability, T/C", "setting": "second compound 3.16 µM, first compound 0.3 µM", "result": 6.89, "unit": "%"}, {"measurement": "viability, T/C", "setting": "second compound 10 µM, first compound 0.000949 µM", "result": 87.2, "unit": "%"}, {"measurement": "viability, T/C", "setting": "second compound 10 µM, first compound 0.003 µM", "result": 81.6, "unit": "%"}, {"measurement": "viability, T/C", "setting": "second compound 10 µM, first compound 0.00949 µM", "result": 75.4, "unit": "%"}, {"measurement": "viability, T/C", "setting": "second compound 10 µM, first compound 0.03 µM", "result": 34.5, "unit": "%"}, {"measurement": "viability, T/C", "setting": "second compound 10 µM, first compound 0.0949 µM", "result": 14.5, "unit": "%"}, {"measurement": "viability, T/C", "setting": "second compound 10 µM, first compound 0.3 µM", "result": 5.54, "unit": "%"}]}, {"molecule": "COc1ccc([C@@H](O)c2cc(-c3ncnc4cc(N5CCOCC5)ccc34)c(F)cc2Cl)nn1", "note": "+ NC1CCC(NC2CC2c2ccccc2)CC1", "values": [{"measurement": "IC50", "setting": "[1]", "result": 423, "unit": "nM"}, {"measurement": "IC50", "setting": "[2]", "result": 471, "unit": "nM"}, {"measurement": "IC50", "setting": "[3]", "result": 468, "unit": "nM"}, {"measurement": "IC50", "setting": "[4]", "result": 520, "unit": "nM"}, {"measurement": "IC50", "setting": "[5]", "result": 299, "unit": "nM"}, {"measurement": "viability, T/C", "setting": "second compound 0.1 µM, first compound 0.0316 µM", "result": 102, "unit": "%"}, {"measurement": "viability, T/C", "setting": "second compound 0.1 µM, first compound 0.1 µM", "result": 109, "unit": "%"}, {"measurement": "viability, T/C", "setting": "second compound 0.1 µM, first compound 0.316 µM", "result": 52.1, "unit": "%"}, {"measurement": "viability, T/C", "setting": "second compound 0.1 µM, first compound 1 µM", "result": 30.2, "unit": "%"}, {"measurement": "viability, T/C", "setting": "second compound 0.1 µM, first compound 3.16 µM", "result": 8.02, "unit": "%"}, {"measurement": "viability, T/C", "setting": "second compound 0.1 µM, first compound 10 µM", "result": 5.61, "unit": "%"}, {"measurement": "viability, T/C", "setting": "second compound 0.316 µM, first compound 0.0316 µM", "result": 112, "unit": "%"}, {"measurement": "viability, T/C", "setting": "second compound 0.316 µM, first compound 0.1 µM", "result": 95.1, "unit": "%"}, {"measurement": "viability, T/C", "setting": "second compound 0.316 µM, first compound 0.316 µM", "result": 63.3, "unit": "%"}, {"measurement": "viability, T/C", "setting": "second compound 0.316 µM, first compound 1 µM", "result": 26.6, "unit": "%"}, {"measurement": "viability, T/C", "setting": "second compound 0.316 µM, first compound 3.16 µM", "result": 8.83, "unit": "%"}, {"measurement": "viability, T/C", "setting": "second compound 0.316 µM, first compound 10 µM", "result": 6.71, "unit": "%"}, {"measurement": "viability, T/C", "setting": "second compound 1 µM, first compound 0.0316 µM", "result": 122, "unit": "%"}, {"measurement": "viability, T/C", "setting": "second compound 1 µM, first compound 0.1 µM", "result": 102, "unit": "%"}, {"measurement": "viability, T/C", "setting": "second compound 1 µM, first compound 0.316 µM", "result": 60.6, "unit": "%"}, {"measurement": "viability, T/C", "setting": "second compound 1 µM, first compound 1 µM", "result": 28.4, "unit": "%"}, {"measurement": "viability, T/C", "setting": "second compound 1 µM, first compound 3.16 µM", "result": 10.5, "unit": "%"}, {"measurement": "viability, T/C", "setting": "second compound 1 µM, first compound 10 µM", "result": 6.33, "unit": "%"}, {"measurement": "viability, T/C", "setting": "second compound 3.16 µM, first compound 0.0316 µM", "result": 102, "unit": "%"}, {"measurement": "viability, T/C", "setting": "second compound 3.16 µM, first compound 0.1 µM", "result": 102, "unit": "%"}, {"measurement": "viability, T/C", "setting": "second compound 3.16 µM, first compound 0.316 µM", "result": 66.4, "unit": "%"}, {"measurement": "viability, T/C", "setting": "second compound 3.16 µM, first compound 1 µM", "result": 27, "unit": "%"}, {"measurement": "viability, T/C", "setting": "second compound 3.16 µM, first compound 3.16 µM", "result": 10.9, "unit": "%"}, {"measurement": "viability, T/C", "setting": "second compound 3.16 µM, first compound 10 µM", "result": 5.88, "unit": "%"}, {"measurement": "viability, T/C", "setting": "second compound 10 µM, first compound 0.0316 µM", "result": 98.1, "unit": "%"}, {"measurement": "viability, T/C", "setting": "second compound 10 µM, first compound 0.1 µM", "result": 78.8, "unit": "%"}, {"measurement": "viability, T/C", "setting": "second compound 10 µM, first compound 0.316 µM", "result": 48.2, "unit": "%"}, {"measurement": "viability, T/C", "setting": "second compound 10 µM, first compound 1 µM", "result": 23.5, "unit": "%"}, {"measurement": "viability, T/C", "setting": "second compound 10 µM, first compound 3.16 µM", "result": 9.1, "unit": "%"}, {"measurement": "viability, T/C", "setting": "second compound 10 µM, first compound 10 µM", "result": 5.47, "unit": "%"}]}]}
